The test system of one data set is SK-MEL-3 cells. In words: Assay 1 cell proliferation measurement (CTG, 72 h), SK-MEL-3. It counts as cell-based, human. The conditions noted are these: Homo sapiens, SK-MEL3; Assay 1, 72 h, Cell Titer Glo; read-out: SK-MEL-3 IC50 [nM] (melanoma). The method in brief: (§1)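 Growth inhibition relative to a 0 h baseline plate and 0.3% DMSO control, with IC50 fitted by 4-parameter curve. Compound exposure lasted 72 h at 37 °C across a 2.5-fold, 10-step series starting generally at 100 nM final.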

For another data set, the system named is HeLa cells. In words: Assay 1 cell proliferation measurement (CTG, 72 h), HeLa. In kind it is cell-based, human. The conditions noted are these: Homo sapiens, HeLa; Assay 1, 72 h, Cell Titer Glo; read-out: HeLa IC50 [nM] (Cervical cancer). The method in brief: as §1
Background: ATP-based viability assays read luminescence as a measure of living cells.

The subject of a further data set is IGR37 cells. Description: Assay 1 cell proliferation measurement (CTG, 72 h), IGR37. It counts as cell-based. To be noted: Homo sapiens, IGR-37, Cell Titer Glo, read-out: IGR37 IC50 [nM] (melanoma).
Another data set concerns the target human full length PDE3B (Homo sapiens (Human), UniProt Q13370). In words: Assay 5 PDE3B enzyme inhibition (3H-cAMP SPA). In kind it is biochemical. The conditions noted are these: Sf9 cell extract. The method in brief: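 Hydrolysis of tritiated cAMP by Sf9-expressed full-length human PDE3B proceeded 60 min at room temperature in Tris buffer pH 7.5 containing Mg2+, EDTA and BSA, with enzyme dilution keeping substrate consumption below 70%. IC50 derived from percent activity versus log compound concentration.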

The next data set deals with human full length PDE3A (Homo sapiens (Human), UniProt Q14432). Description: Assay 4 PDE3A enzyme inhibition (3H-cAMP SPA). To be noted: Sf9 cell extract. In kind it is biochemical. The method in brief:
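Hydrolysis of [8-3H]cAMP by Sf9-expressed full-length PDE3A was measured by scintillation proximity, with enzyme diluted to keep kinetics linear and substrate consumption below 70%. Incubation ran 60 min at room temperature at pH 7.5.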

Data set [1] is described as follows: Assay 6 in vitro metabolic stability in cryopreserved human hepatocytes (CL, Fmax). It counts as in vitro ADME. The conditions noted are these: 1 μM test compound; for Clblood: hepatic in vivo blood clearance calculated (well-stirred) from half-life in cryopreserved human hepatocytes; for Fmax: maximal oral bioavailability calculated from half-life in cryopreserved human hepatocytes. The method, then: Assay 6 Method for Human Cryo Hepatocytes:
Investigation of In Vitro Metabolic Stability in Cryopreserved Human Hepatocytes (Including Calculation of Hepatic In Vivo Blood Clearance (CL) and Maximal Oral Bioavailability (Fmax))
Cryopreserved Hepatocytes (e.g. purchased from Celsis InVitroTechnologies) were briefly thawed, washed with 45 mL pre-warmed in in vitro GRO HT medium and centrifuged for 5 min at 50×g. The cell pellet was resuspended in 5 ml of Krebs-Henseleit […] (KHB). Cell viability was determined by trypan blue exclusion.
For the metabolic stability assay liver cells were distributed in WME containing 5% FCS to glass vials at a density of 1.0×10^6 vital cells/ml. The test compound was added to a final concentration of 1 μM. During incubation, the hepatocyte suspensions were continuously shaken at 580 rpm and aliquots were taken at 2, 8, 16, 30, 45 and 90 min, to which equal volumes of cold methanol were immediately added. Samples were frozen at −20° C. over night, after subsequently centrifuged for 15 minutes at 3000 rpm and the supernatant was analyzed with an Agilent 1290 HPLC-system with LCMS/MS detection.
The half-life of a test compound was determined from the concentration-time plot. From the half-life the intrinsic clearances were calculated. Together with the additional parameters liver blood flow, amount of liver cells in vivo and in vitro. The hepatic in vivo blood clearance (CL) and the maximal oral bioavailability (Fmax) was calculated.

The values below come from patent US11427553B2, “Dihydrooxadiazinones” (Bayer Aktiengesellschaft, priority 2017, dated 2022).

Bounds are passed on as bounds.

human full length PDE3A, sequence (Q14432 whole entry): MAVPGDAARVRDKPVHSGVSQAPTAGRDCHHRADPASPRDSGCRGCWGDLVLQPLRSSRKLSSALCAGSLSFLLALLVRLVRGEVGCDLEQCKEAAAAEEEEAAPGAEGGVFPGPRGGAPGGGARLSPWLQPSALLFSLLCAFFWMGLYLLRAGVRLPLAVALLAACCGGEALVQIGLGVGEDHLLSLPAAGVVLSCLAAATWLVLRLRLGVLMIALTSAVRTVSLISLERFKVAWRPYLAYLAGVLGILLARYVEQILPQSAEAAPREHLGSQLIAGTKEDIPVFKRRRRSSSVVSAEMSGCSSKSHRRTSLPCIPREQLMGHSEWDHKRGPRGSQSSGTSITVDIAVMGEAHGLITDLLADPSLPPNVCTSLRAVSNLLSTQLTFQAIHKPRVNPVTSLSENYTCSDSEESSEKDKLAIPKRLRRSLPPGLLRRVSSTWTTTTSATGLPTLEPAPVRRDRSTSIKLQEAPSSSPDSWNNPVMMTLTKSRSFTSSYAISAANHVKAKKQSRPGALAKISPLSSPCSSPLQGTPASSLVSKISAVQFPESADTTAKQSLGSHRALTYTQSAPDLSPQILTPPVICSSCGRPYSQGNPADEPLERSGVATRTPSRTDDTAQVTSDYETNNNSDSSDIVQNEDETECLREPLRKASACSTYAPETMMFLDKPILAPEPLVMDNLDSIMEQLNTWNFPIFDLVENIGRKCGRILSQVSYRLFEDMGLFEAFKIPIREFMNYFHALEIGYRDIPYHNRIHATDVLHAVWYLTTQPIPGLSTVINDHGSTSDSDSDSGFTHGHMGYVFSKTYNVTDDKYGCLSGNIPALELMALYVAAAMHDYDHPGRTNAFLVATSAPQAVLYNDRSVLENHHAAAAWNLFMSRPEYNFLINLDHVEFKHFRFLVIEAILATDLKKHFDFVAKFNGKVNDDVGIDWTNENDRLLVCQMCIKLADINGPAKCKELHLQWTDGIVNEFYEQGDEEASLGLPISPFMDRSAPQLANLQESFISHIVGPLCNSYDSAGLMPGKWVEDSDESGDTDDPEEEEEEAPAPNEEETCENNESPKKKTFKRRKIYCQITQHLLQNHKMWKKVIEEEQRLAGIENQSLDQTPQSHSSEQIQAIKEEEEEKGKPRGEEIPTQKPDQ
human full length PDE3B, sequence (Q13370 whole entry): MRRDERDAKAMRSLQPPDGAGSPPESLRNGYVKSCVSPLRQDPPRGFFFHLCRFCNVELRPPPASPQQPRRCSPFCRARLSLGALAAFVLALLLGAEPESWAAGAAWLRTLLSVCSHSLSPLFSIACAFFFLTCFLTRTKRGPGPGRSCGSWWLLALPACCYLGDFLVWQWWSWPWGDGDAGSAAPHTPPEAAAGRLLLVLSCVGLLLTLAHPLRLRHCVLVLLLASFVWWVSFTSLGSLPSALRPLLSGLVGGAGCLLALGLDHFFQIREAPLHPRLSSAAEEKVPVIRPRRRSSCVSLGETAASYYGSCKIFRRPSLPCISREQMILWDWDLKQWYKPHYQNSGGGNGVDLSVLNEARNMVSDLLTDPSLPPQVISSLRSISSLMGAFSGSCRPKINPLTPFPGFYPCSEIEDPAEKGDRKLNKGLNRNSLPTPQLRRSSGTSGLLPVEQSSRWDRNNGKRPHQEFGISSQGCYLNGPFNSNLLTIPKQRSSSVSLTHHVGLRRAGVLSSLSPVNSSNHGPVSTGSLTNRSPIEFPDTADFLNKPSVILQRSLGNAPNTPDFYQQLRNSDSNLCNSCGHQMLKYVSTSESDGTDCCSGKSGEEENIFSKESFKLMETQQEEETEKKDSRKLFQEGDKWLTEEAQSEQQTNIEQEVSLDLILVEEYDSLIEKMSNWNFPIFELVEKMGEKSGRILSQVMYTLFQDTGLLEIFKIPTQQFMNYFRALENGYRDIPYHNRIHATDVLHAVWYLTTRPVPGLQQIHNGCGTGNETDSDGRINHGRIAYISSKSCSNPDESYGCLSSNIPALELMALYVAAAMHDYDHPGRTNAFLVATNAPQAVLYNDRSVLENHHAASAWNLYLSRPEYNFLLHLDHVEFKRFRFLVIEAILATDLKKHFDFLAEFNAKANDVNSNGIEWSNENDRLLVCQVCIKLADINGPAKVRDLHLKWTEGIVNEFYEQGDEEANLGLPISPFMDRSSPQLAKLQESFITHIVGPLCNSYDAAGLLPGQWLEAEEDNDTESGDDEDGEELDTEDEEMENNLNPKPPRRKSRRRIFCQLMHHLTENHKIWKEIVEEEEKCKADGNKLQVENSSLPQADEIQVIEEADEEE

`C[C@@H]1OC(=O)NN=C1c1ccc(N2CC(F)(F)C2)c(C(F)(F)F)c1` [Example 279, (6S)-5-[4-(3,3-Difluoroazetidin-1-yl)-3-(trifluoromethyl)phenyl]-6-methyl-3,6-dihydro-2H-1,3,4-oxadiazin-2-one]: the half-inhibitory concentration (IC50) in the data set with SK-MEL-3 cells stood at 2 nM; with HeLa cells, 1 nM; with IGR37 cells it was 2 nM.
For the compound `C[C@@H]1OC(=O)NN=C1c1ccc(-c2ccncc2)c(C(F)(F)F)c1` [Example 166, (6S)-6-Methyl-5-[4-(pyridin-4-yl)-3-(trifluoromethyl)phenyl]-3,6-dihydro-2H-1,3,4-oxadiazin-2-one], the 50% inhibitory concentration (IC50) was determined as 42 nM on human full length PDE3B; 1 nM in the data set with SK-MEL-3 cells; 1 nM with HeLa cells; 1 nM with IGR37 cells; 69 nM against human full length PDE3A.
With `C[C@@H]1OC(=O)NN=C1c1ccc(N2CC(C)(O)C2)c(C(F)(F)F)c1` [Example 280, (6S)-5-[4-(3-Hydroxy-3-methylazetidin-1-yl)-3-(trifluoromethyl)phenyl]-6-methyl-3,6-dihydro-2H-1,3,4-oxadiazin-2-one], the IC50 with SK-MEL-3 cells worked out at 0.4 nM; in the data set with HeLa cells, 0.1 nM; with IGR37 cells, 0.4 nM.
Consider `CC1(C#N)CN(c2ccc(C3=NNC(=O)OC3)cc2C(F)(F)F)C1` [Example 251, 3-Methyl-1-[4-(2-oxo-3,6-dihydro-2H-1,3,4-oxadiazin-5-yl)-2-(trifluoromethyl)phenyl]azetidine-3-carbonitrile], for which the IC50 at human full length PDE3B was determined as 97 nM; with SK-MEL-3 cells, 5 nM; in the data set on HeLa cells it was 2 nM; in the data set on IGR37 cells it was 4 nM; at human full length PDE3A it was 61 nM.
For the compound `C[C@@H]1OC(=O)NN=C1c1ccc(-c2ccc(O)cc2)c(C(F)(F)F)c1` [Example 174, (6S)-5-[4′-Hydroxy-2-(trifluoromethyl)[1,1′-biphenyl]-4-yl]-6-methyl-3,6-dihydro-2H-1,3,4-oxadiazin-2-one], the concentration for half-maximal inhibition (IC50) at human full length PDE3B was 16 nM; with SK-MEL-3 cells, 1 nM; in the data set with HeLa cells, 1 nM; in the data set with IGR37 cells, 1 nM; at human full length PDE3A it was 27 nM.
Turning to `CC(Nc1ccc(C2=NNC(=O)OC2)cc1C(F)(F)F)C1CC1` (racemic) [Example 240, (rac)-5-{4-[(1-cyclopropylethyl)amino]-3-(trifluoromethyl)phenyl}-3,6-dihydro-2H-1,3,4-oxadiazin-2-one], the concentration for half-maximal inhibition (IC50) against human full length PDE3B came out at 260 nM; in the data set with SK-MEL-3 cells, 12 nM; with HeLa cells it was 3 nM; with IGR37 cells, 10 nM; at human full length PDE3A it was 180 nM.
In the case of `CNc1ccc(C2=NNC(=O)OC2)cc1C(F)(F)F` [Example 276, 5-[4-(Methylamino)-3-(trifluoromethyl)phenyl]-3,6-dihydro-2H-1,3,4-oxadiazin-2-one], the IC50 against human full length PDE3B was 240 nM; in the data set with SK-MEL-3 cells, 49 nM; in the data set with HeLa cells, 27 nM; in the data set with IGR37 cells it was 50 nM; at human full length PDE3A it was 79 nM.
Turning to `CCC1(O)CCN(c2ccc(C3=NNC(=O)OC3)cc2C(F)(F)F)CC1` [Example 253, 5-[4-(4-Ethyl-4-hydroxypiperidin-1-yl)-3-(trifluoromethyl)phenyl]-3,6-dihydro-2H-1,3,4-oxadiazin-2-one], the IC50 at human full length PDE3B came out at 155 nM; with SK-MEL-3 cells, 40 nM; in the data set with HeLa cells, 1 nM; in the data set with IGR37 cells, 5 nM; against human full length PDE3A, 190 nM.
In the case of `O=C1NN=C(c2ccc(N3CCC(F)(F)CC3)c(C(F)(F)F)c2)CO1` [Example 232, 5-[4-(4,4-Difluoropiperidin-1-yl)-3-(trifluoromethyl)phenyl]-3,6-dihydro-2H-1,3,4-oxadiazin-2-one], the values for the IC50 in the data set on SK-MEL-3 cells, in the data set with HeLa cells and with IGR37 cells were 5 nM, 2 nM and 4 nM, respectively.
`O=C1NN=C(c2ccc(-c3ccc(Cl)cc3)c(OC(F)(F)F)c2)CO1` [Example 71, 5-[4′-Chloro-2-(trifluoromethoxy)biphenyl-4-yl]-3,6-dihydro-2H-1,3,4-oxadiazin-2-one]: the concentration for half-maximal inhibition (IC50) is > 1000 nM against human full length PDE3B, 38 nM with SK-MEL-3 cells, 20 nM with HeLa cells and > 1000 nM against human full length PDE3A. Further, the Clblood in data set [1] is 3.17 mL/min/kg. The Fmax in data set [1] is recorded as 86%.
In the case of `O=C1NN=C(c2ccc(-c3ccc(F)cc3)c(C(F)F)c2)CO1` [Example 198, 5-[2-(Difluoromethyl)-4′-fluoro[1,1′-biphenyl]-4-yl]-3,6-dihydro-2H-1,3,4-oxadiazin-2-one], the half-inhibitory concentration (IC50) came out at 130 nM against human full length PDE3B, 14 nM in the data set with SK-MEL-3 cells, 6 nM with HeLa cells and 170 nM against human full length PDE3A. The Clblood in data set [1] was 7.33 mL/min/kg. Moreover, the Fmax in data set [1] was 67%.
Turning to `CCOCCNc1ccc(C2=NNC(=O)OC2)cc1C(F)(F)F` [Example 260, 5-{4-[(2-Ethoxyethyl)amino]-3-(trifluoromethyl)phenyl}-3,6-dihydro-2H-1,3,4-oxadiazin-2-one], the 50% inhibitory concentration (IC50) was 170 nM at human full length PDE3B, 3 nM with SK-MEL-3 cells, 1 nM in the data set with HeLa cells and 48 nM against human full length PDE3A. Besides, the Clblood in data set [1] was 14.3 mL/min/kg. For the same compound, the Fmax in data set [1] is reported as 35%.
In the case of `CC(C)Cc1ccc(C2=NNC(=O)OC2)cc1C(F)(F)F` [Example 268, 5-[4-(2-Methylpropyl)-3-(trifluoromethyl)phenyl]-3,6-dihydro-2H-1,3,4-oxadiazin-2-one], the IC50 against human full length PDE3B was 110 nM; in the data set on SK-MEL-3 cells, 3 nM; in the data set with HeLa cells, 1 nM; on human full length PDE3A, 138 nM. For the same compound, the Clblood in data set [1] is 5 mL/min/kg. Besides, the Fmax in data set [1] was 78%.
For the compound `Cc1cc(F)ccc1-c1ccc(C2=NNC(=O)OC2)cc1C` [Example 9, 5-(4′-Fluoro-2,2′-dimethylbiphenyl-4-yl)-3,6-dihydro-2H-1,3,4-oxadiazin-2-one], the 50% inhibitory concentration (IC50) turned out to be 240 nM at human full length PDE3B, 33 nM with SK-MEL-3 cells, 15 nM in the data set with HeLa cells and 440 nM against human full length PDE3A. In addition, in data set [1], the Clblood is 3.17 mL/min/kg. Moreover, in data set [1], the Fmax is 85%.
Consider `CC1(O)CN(c2ccc(C3=NNC(=O)OC3)cc2C(F)(F)F)C1` [Example 203, 5-[4-(3-Hydroxy-3-methylazetidin-1-yl)-3-(trifluoromethyl)phenyl]-3,6-dihydro-2H-1,3,4-oxadiazin-2-one], for which the half-inhibitory concentration (IC50) came to 88 nM at human full length PDE3B, 2 nM in the data set with SK-MEL-3 cells, 1 nM in the data set with HeLa cells and 37 nM against human full length PDE3A. In addition, the Clblood in data set [1] was 10.2 mL/min/kg. For the same compound, in data set [1], the Fmax was 54%.
`O=C1NN=C(c2ccc(-c3ccc(Cl)cc3)c(C(F)F)c2)CO1` [Example 199, 5-[4′-Chloro-2-(difluoromethyl)[1,1′-biphenyl]-4-yl]-3,6-dihydro-2H-1,3,4-oxadiazin-2-one]: the IC50 against human full length PDE3B turned out to be 200 nM; in the data set on SK-MEL-3 cells it was 5 nM; with HeLa cells, 2 nM; against human full length PDE3A, 210 nM. The Clblood in data set [1] is 15.7 mL/min/kg. The Fmax in data set [1] is on record as 29%.
Consider `O=C1NN=C(c2ccc(-c3ccc(F)cc3F)c(F)c2)CO1` [Example 111, 5-(2,2′,4′-Trifluoro[1,1′-biphenyl]-4-yl)-3,6-dihydro-2H-1,3,4-oxadiazin-2-one], for which the IC50 at human full length PDE3B amounted to 81 nM; in the data set with SK-MEL-3 cells, 4 nM; in the data set on HeLa cells it was 2 nM; at human full length PDE3A, 72 nM. In addition, the Clblood in data set [1] is 5.33 mL/min/kg. Moreover, the Fmax in data set [1] is given as 76%.

By IC50 is commonly meant the midpoint of a concentration-inhibition curve.
